The source of these data is US8207178B2 (priority 2007, dated 2012).

Like-named read-outs stand apart in the source and are kept apart here. Where only a bound is given, the exact number is not on record here.

What all share (test): microbe, parasite or virus in culture
What all share (type): cell-based, human immunodeficiency virus type 1 (HIV-1)

Assay [1] has as its system HIV-1 K103N-L100I mutant.
The test system of assay [2] is HIV-1 K103N-Y181C mutant. The note with it: Human immunodeficiency virus 1, HeLa, read-out: EC50 mutant K103N-Y181C.
Assay [3] has as its system HIV-1 K103N mutant. The note with it: Human immunodeficiency virus 1, HeLa, read-out: EC50 mutant K103N.
Assay [4] deals with wild type HIV-1.
In assay [5] the test system is HIV-1 Y188L mutant. The note with it: Human immunodeficiency virus 1, HeLa, read-out: EC50 mutant Y188L.
Setting [6] is: Human immunodeficiency virus 1, HeLa, read-out: EC50 mutant K103N-L100I, mutant K103N-L100I.
Setting [7] is: Human immunodeficiency virus 1, Hela-JC53.

In the case of `Cc1cc(-c2ccncc2)cc(C)c1Oc1nc(Nc2ccc(C#N)cc2)nc2ccn(C)c12` [Example 1, 4-(4-(2,6-Dimethyl-4-(pyridin-4-yl)phenoxy)-5-methyl-5H-pyrrolo[3,2-d]pyrimidin-2-ylamino)benzonitrile], the half-maximal effective concentration (EC50) in assay [1] (setting [6]) is 1 to 10 nM; in assay [2] it was 1 to 10 nM; in assay [3], less than 1 nM; in assay [4] (setting [7]), 1 to 10 nM; in assay [5] it was 1 to 10 nM.

For the molecule `Cc1cc(-c2ccncc2F)cc(C)c1Oc1nc(Nc2ccc(C#N)cc2)nc2ccn(C)c12` [Example 2, 4-(4-(4-(3-Fluoropyridin-4-yl)-2,6-dimethylphenoxy)-5-methyl-5H-pyrrolo[3,2-d]pyrimidin-2-ylamino) benzonitrile], the concentration giving a half-maximal response (EC50) was 1 to 10 nM in assay [1] (setting [6]); 1 to 10 nM in assay [2]; 1 to 10 nM in assay [3]; 1 to 10 nM in assay [4] (setting [7]); greater than 10 nM in assay [5].

Consider `Cc1cc(-c2ccnc(F)c2)cc(C)c1Oc1nc(Nc2ccc(C#N)cc2)nc2ccn(C)c12` [Example 3, 4-(4-(4-(2-Fluoropyridin-4-yl)-2,6-dimethylphenoxy)-5-methyl-5H-pyrrolo[3,2-d]pyrimidin-2-ylamino) benzonitrile], for which the half-maximal effective concentration (EC50) in assay [1] (setting [6]) was 1 to 10 nM; in assay [2] it was greater than 10 nM; in assay [3], 1 to 10 nM; in assay [4] (setting [7]), 1 to 10 nM; in assay [5], greater than 10 nM.

With `Cc1cc(-c2ccncc2C#N)cc(C)c1Oc1nc(Nc2ccc(C#N)cc2)nc2ccn(C)c12` [Example 5, 4-(4-(2-(4-Cyanophenylamino)-5-methyl-5H-pyrrolo[3,2-d]pyrimidin-4-yloxy)-3,5-dimethylphenyl)nicotinonitrile], the EC50 is less than 1 nM in assay [1] (read-out: EC50 mutant K103N-L100I, mutant K103N-L100I); 1 to 10 nM in assay [2]; less than 1 nM in assay [3]; less than 1 nM in assay [4]; greater than 10 nM in assay [5].

`Cc1cc(-c2ccnc(C#N)c2)cc(C)c1Oc1nc(Nc2ccc(C#N)cc2)nc2ccn(C)c12` [Example 6, 4-(4-(2-(4-Cyanophenylamino)-5-methyl-5H-pyrrolo[3,2-d]pyrimidin-4-yloxy)-3,5-dimethylphenyl)picolinonitrile]: the half-maximal effective concentration (EC50) was 1 to 10 nM in assay [1] (setting [6]); greater than 10 nM in assay [2]; 1 to 10 nM in assay [3]; 1 to 10 nM in assay [4] (setting [7]); greater than 10 nM in assay [5].

In the case of `Cc1cnccc1-c1cc(C)c(Oc2nc(Nc3ccc(C#N)cc3)nc3ccn(C)c23)c(C)c1` [Example 7, 4-(4-(2,6-Dimethyl-4-(3-methylpyridin-4-yl)phenoxy)-5-methyl-5H-pyrrolo [3,2-d]pyrmidin-2-ylamino)benzonitrile], the half-maximal effective concentration (EC50) was 1 to 10 nM in assay [1] (setting [6]); 1 to 10 nM in assay [2]; 1 to 10 nM in assay [3]; 1 to 10 nM in assay [4] (setting [7]); greater than 10 nM in assay [5].

As to `Cc1cc(-c2cc(C)c(Oc3nc(Nc4ccc(C#N)cc4)nc4ccn(C)c34)c(C)c2)ccn1` [Example 8, 4-(4-(2,6-Dimethyl-4-(2-methylpyridin-4-yl)phenoxy)-5-methyl-5H-pyrrolo[3,2-d]pyrimidin-2-ylamino) benzonitrile], the concentration for a half-maximal effect (EC50) in assay [1] (setting [6]) was greater than 10 nM; in assay [2] it was greater than 10 nM; in assay [3] it was greater than 10 nM; in assay [4] (setting [7]), 1 to 10 nM; in assay [5], greater than 10 nM.

As for `Cc1cc(-c2cccc(C#N)c2)cc(C)c1Oc1nc(Nc2ccc(C#N)cc2)nc2ccn(C)c12` [Example 16, 4′-(2-(4-Cyanophenylamino)-5-methyl-5H-pyrrolo[3,2-d]pyrimidin-4-yloxy)-3′,5′-dimethylbiphenyl-3-carbonitrile], the half-maximal effective concentration (EC50) in assay [1] (setting [6]) was greater than 10 nM; in assay [2] it was greater than 10 nM; in assay [3], greater than 10 nM; in assay [4] (setting [7]), 1 to 10 nM; in assay [5], greater than 10 nM.

For `Cc1cc(-c2cccc(C#N)n2)cc(C)c1Oc1nc(Nc2ccc(C#N)cc2)nc2ccn(C)c12` [Example 17, 6-(4-(2-(4-Cyanophenylamino)-5-methyl-5H-pyrrolo[3,2-d]pyrimidin-4-yloxy)-3,5-dimethylphenyl)picolinonitrile], the 50% effective concentration (EC50) is 1 to 10 nM in assay [1] (setting [6]); greater than 10 nM in assay [2]; 1 to 10 nM in assay [3]; 1 to 10 nM in assay [4] (setting [7]); greater than 10 nM in assay [5].

`Cc1cc(-c2cn[nH]c2)cc(C)c1Oc1nc(Nc2ccc(C#N)cc2)nc2ccn(C)c12` [Example 24, 4-(4-(2,6-Dimethyl-4-(1H-pyrazol-4-yl)phenoxy)-5-methyl-5H-pyrrolo[3,2-d]pyrimidin-2-ylamino)-benzonitrile]: the EC50 in assay [1] (setting [6]) was 1 to 10 nM; in assay [2], greater than 10 nM; in assay [3] it was 1 to 10 nM; in assay [4] (setting [7]), less than 1 nM; in assay [5] it was 1 to 10 nM.

On to `Cc1cc(-c2ccncc2)cc(C)c1Oc1nc(Nc2ccc(C#N)cc2)nc2nc[nH]c12` [Example 29, 4-(6-(2,6-Dimethyl-4-(pyridin-4-yl)phenoxy)-7H-purin-2-ylamino)benzonitrile], for which the concentration for a half-maximal effect (EC50) in assay [1] (setting [6]) was 1 to 10 nM; in assay [2] it was 1 to 10 nM; in assay [3] it was less than 1 nM; in assay [4] (setting [7]), less than 1 nM; in assay [5], 1 to 10 nM.

As for `CCOC(=O)c1ccc(-c2cc(C)c(Oc3nc(Nc4ccc(C#N)cc4)nc4nc[nH]c34)c(C)c2)cn1` [Example 120, Ethyl 5-(4-(2-(4-cyanophenylamino)-7H-purin-6-yloxy)-3,5-dimethylphenyl)picolinate], the 50% effective concentration (EC50) in assay [1] (setting [6]) and in assay [4] (setting [7]) was greater than 10 nM each time.

Take `Cc1cc(-c2ccc(C(N)=O)cn2)cc(C)c1Oc1nc(Nc2ccc(C#N)cc2)nc2c1ncn2C` [Example 124, 6-(4-(2-(4-cyanophenylamino)-9-methyl-9H-purin-6-yloxy)-3,5-dimethylphenyl)nicotinamide]: the 50% effective concentration (EC50) in assay [1] (setting [6]) was greater than 10 nM; in assay [4] (setting [7]), 1 to 10 nM.

For `Cc1cc(-c2ccc(C(=O)N3CCC3)cn2)cc(C)c1Oc1nc(Nc2ccc(C#N)cc2)nc2[nH]cnc12` [Example 125, 4-(6-(4-(5-(azetidine-1-carbonyl)pyridin-2-yl)-2,6-dimethylphenoxy)-9H-purin-2-ylamino)benzonitrile], the EC50 in assay [1] (setting [6]) and in assay [4] (setting [7]) was 1 to 10 nM each time.

Take `Cc1cc(-c2ccc(C(=O)N3CCC(C#N)C3)cn2)cc(C)c1Oc1nc(Nc2ccc(C#N)cc2)nc2[nH]cnc12` (stereo not drawn) [Example 127, 1-(6-(4-(2-(4-cyanophenylamino)-9H-purin-6-yloxy)-3,5-dimethylphenyl)nicotinoyl)pyrrolidine-3-carbonitrile]: the 50% effective concentration (EC50) in assay [1] (setting [6]) and in assay [4] (setting [7]) was greater than 10 nM throughout.

`Cc1cc(-c2ccc(C(=O)N(C)C)cn2)cc(C)c1Oc1nc(Nc2ccc(C#N)cc2)nc2[nH]cnc12` [Example 128, 6-(4-(2-(4-cyanophenylamino)-9H-purin-6-yloxy)-3,5-dimethylphenyl)-N,N-dimethylnicotinamide]: the EC50 was greater than 10 nM in assay [1] (setting [6]) and 1 to 10 nM in assay [4] (setting [7]).

With `Cc1cc(-c2ccc(C(N)=O)nc2)cc(C)c1Oc1nc(Nc2ccc(C#N)cc2)nc2[nH]cnc12` [Example 129, 5-(4-(2-(4-cyanophenylamino)-9H-purin-6-yloxy)-3,5-dimethylphenyl)picolinamide], the EC50 is greater than 10 nM in assay [1] (setting [6]) and 1 to 10 nM in assay [4] (setting [7]).

Take `COC(=O)c1ccc(-c2cc(C)c(Oc3nc(Nc4ccc(C#N)cc4)nc4[nH]cnc34)c(C)c2)cn1` [Example 130, Methyl 5-(4-(2-(4-cyanophenylamino)-9H-purin-6-yloxy)-3,5-dimethylphenyl)picolinate]: the values for the EC50 in assay [1] (setting [6]) and in assay [4] (setting [7]) were greater than 10 nM and 1 to 10 nM, respectively.
